Data as given in ChEMBL document CHEMBL4402553, “Recent advances in the discovery and development of glyoxalase I inhibitors” (Bioorg Med Chem, 2020).
Values belong to the compound of their own block, whether it stands above or below them.

What was measured:
[1] = biological target: T1, Lactoylglutathione lyase (Homo sapiens, UniProt Q04760); experiment: Inhibition of Glyoxalase-1 (unknown origin)
[2] = biological target: T1, Lactoylglutathione lyase; experiment: Competitive inhibition of human Glyoxalase-1 using GSH and MGO as substrate by Michaelis-Menten analysis
[3] = biological target: T1, Lactoylglutathione lyase; experiment: Competitive inhibition of human Glyoxalase-1 using GSH and MGO as substrate
[4] = biological target: Lactoylglutathione lyase (Mus musculus, UniProt Q9CPU0); experiment: Competitive inhibition of recombinant mouse His-tagged Glyoxalase-1 using GSH and MGO as substrate by spectrophotometric method
[5] = biological target: T1, Lactoylglutathione lyase; experiment: Inhibition of human Glyoxalase-1

T1 sequence (Q04760 whole entry): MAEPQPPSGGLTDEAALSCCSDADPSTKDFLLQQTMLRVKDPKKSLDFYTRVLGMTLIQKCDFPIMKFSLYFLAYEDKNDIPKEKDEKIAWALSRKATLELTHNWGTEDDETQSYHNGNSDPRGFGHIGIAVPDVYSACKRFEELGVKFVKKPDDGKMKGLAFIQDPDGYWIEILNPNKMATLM
Sequence of Lactoylglutathione lyase (Mus musculus, UniProt Q9CPU0) (Q9CPU0 whole entry): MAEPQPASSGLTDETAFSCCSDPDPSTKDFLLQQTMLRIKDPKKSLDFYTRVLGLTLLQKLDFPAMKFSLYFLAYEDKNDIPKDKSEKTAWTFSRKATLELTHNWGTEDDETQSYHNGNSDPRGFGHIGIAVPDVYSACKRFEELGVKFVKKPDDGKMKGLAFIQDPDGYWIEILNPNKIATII

IC50 [1]: 90000 nM
Compound: NS(=O)(=O)c1ccc2c(c1)S(=O)(=O)NC2=O

Ki [2]: 0.96 nM
Compound: O=C(O)CNC(=O)[C@H](CSC(=O)N(O)c1ccc(Cl)cc1)NC(=O)CC[C@H](NC(=O)CCNC(=O)CCNC(=O)CCNC(=O)CCNC(=O)CCNC(=O)CCNC(=O)CCCCCCC(=O)NCCC(=O)NCCC(=O)NCCC(=O)NCCC(=O)NCCC(=O)NCCC(=O)N[C@@H](CCC(=O)N[C@@H](CSC(=O)N(O)c1ccc(Cl)cc1)C(=O)NCC(=O)O)C(=O)O)C(=O)O

Ki [3]: 1 nM
Compound: C#Cc1cccc(N(O)C(=O)CC[C@H](NC(=O)CC[C@H](N)C(=O)O)C(=O)NCC(=O)O)c1

Ki [3]: 19 nM
Compound: C#Cc1cccc(N(O)C(=O)SC[C@H](NC(=O)CC[C@H](N)C(=O)O)C(=O)NCC(=O)O)c1

Ki [4]: 230 nM
Compound: COC(=O)c1c(C)cc(Oc2cc(C)cc(O)c2O)cc1O

Ki [5]: 10 nM
Compound: N[C@@H](CCC(=O)N[C@@H](CSC(=O)N(O)c1ccc(I)cc1)C(=O)NCC(=O)O)C(=O)O

Ki [4]: 150 nM
Compound: Cc1cc(O)c(O)c(Oc2cc(C)c(C(=O)O)c(O)c2)c1

Ki [3]: 7 nM
Compound: C#Cc1ccc(N(O)C(=O)SC[C@H](NC(=O)CC[C@H](N)C(=O)O)C(=O)NCC(=O)O)cc1
